This passage reports IC50 results from patent US11034725B2, “Compositions and methods for treating cardiovascular disease” (Genentech, Inc., priority 2016, dated 2021).

Bridge positions count the residues as written; N and C are the ends. Peptide text beside a SMILES is read from it.

For one assay, the system named is His-EGF(A)-Fc. The assay is described as follows: His-EGF(A)-Fc TR-FRET counterscreen. The following applies: TR-FRET counterscreen; Table 8D; * = some inhibition at highest concentrations, not sufficient to fit an IC50.
A further assay has as its target PCSK9 (Homo sapiens, UniProt Q8NBP7). The assay is described as follows: PCSK9/EGF(A) TR-FRET binding assay. The following applies: TR-FRET; Table 8D, disulfide-cyclized extension peptides; read-out: PCSK9/EGF(A) IC50.
The next assay concerns the target T1, PCSK9Δhelix (Homo sapiens, UniProt Q8NBP7).
T1 construct: Human PCSK9 construct M1-Q692 with an engineered TEV site (residue deletion Y166, R167); made in house; host or cells: CHO
The assay is described as follows: PCSK9Δhelix/Ab20 TR-FRET binding assay. The following applies: TR-FRET; Table 8D, disulfide-cyclized extension peptides; read-out: PCSK9Δhelix/Ab20 IC50.

T1 sequence (Q8NBP7 with tags, fused parts or gaps limits assumed): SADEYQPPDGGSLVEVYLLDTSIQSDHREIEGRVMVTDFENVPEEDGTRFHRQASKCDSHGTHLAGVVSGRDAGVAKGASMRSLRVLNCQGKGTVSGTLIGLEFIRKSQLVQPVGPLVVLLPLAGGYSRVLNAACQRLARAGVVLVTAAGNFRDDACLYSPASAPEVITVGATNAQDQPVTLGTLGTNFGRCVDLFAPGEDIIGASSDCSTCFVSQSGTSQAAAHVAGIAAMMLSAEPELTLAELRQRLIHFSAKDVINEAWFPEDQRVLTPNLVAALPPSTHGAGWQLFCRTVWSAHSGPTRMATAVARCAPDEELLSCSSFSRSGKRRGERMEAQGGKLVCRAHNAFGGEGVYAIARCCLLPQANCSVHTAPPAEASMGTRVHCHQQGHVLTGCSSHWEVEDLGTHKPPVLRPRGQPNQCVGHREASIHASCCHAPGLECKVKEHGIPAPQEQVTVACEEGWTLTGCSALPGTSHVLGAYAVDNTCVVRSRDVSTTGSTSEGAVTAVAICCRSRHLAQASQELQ
T1 sequence (Q8NBP7 31-152 partner limits assumed): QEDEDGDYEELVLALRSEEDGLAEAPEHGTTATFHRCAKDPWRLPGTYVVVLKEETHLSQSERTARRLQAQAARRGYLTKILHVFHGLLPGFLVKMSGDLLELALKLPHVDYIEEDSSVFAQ
Sequence of PCSK9 (Q8NBP7 153-692): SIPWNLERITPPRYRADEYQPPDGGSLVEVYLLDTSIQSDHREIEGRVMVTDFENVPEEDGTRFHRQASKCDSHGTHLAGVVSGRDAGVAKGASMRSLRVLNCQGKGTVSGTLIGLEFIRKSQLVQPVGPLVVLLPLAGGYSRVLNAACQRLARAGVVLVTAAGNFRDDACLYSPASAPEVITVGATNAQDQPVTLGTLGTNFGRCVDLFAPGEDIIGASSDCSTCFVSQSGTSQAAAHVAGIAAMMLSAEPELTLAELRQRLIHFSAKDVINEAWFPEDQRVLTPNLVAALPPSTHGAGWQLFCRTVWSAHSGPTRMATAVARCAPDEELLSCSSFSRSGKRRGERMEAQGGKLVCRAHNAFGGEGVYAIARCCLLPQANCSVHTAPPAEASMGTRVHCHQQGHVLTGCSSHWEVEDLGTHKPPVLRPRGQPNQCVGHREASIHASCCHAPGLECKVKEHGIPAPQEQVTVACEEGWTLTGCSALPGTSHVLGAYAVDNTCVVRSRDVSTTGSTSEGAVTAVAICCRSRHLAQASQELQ
Sequence of PCSK9 (Q8NBP7 31-152 partner limits assumed): as the sequence (Q8NBP7 31-152 partner limits assumed) above

As to `CC[C@H](C)[C@@H]1NC(=O)[C@H](CCCNC(=N)N)NC(=O)[C@H](CCC(N)=O)NC(=O)[C@H](CC(C)C)NC(=O)[C@H](CC(N)=O)NC(=O)[C@H](Cc2c[nH]c3ccccc23)NC(=O)[C@@H]2CCCN2C(=O)[C@H](CC(C)C)NC(=O)[C@H](CCCNC(=N)N)NC(=O)[C@@H](NC(C)=O)CSSC[C@@H](C(N)=O)NC(=O)[C@H](C)NC(=O)[C@H](CC(C)C)NC(=O)CNC1=O` [Compound 68] (Ac-CRLPWNLQRIGLAC-NH2; disulfide 1-14), the values for the IC50 with His-EGF(A)-Fc, at PCSK9 and on PCSK9Δhelix were over 50 µM, over 50 µM and 0.939 µM, respectively.
Turning to `CC[C@H](C)[C@@H]1NC(=O)[C@H](CCCNC(=N)N)NC(=O)[C@H](CCC(N)=O)NC(=O)[C@H](CC(C)C)NC(=O)[C@H](CC(N)=O)NC(=O)[C@H](Cc2c[nH]c3ccccc23)NC(=O)[C@@H]2CCCN2C(=O)[C@H](CC(C)C)NC(=O)[C@H](CCCNC(=N)N)NC(=O)[C@@H](NC(C)=O)CSSC[C@@H](C(N)=O)NC(=O)[C@@H]2CCCN2C(=O)[C@H](C)NC(=O)CNC1=O` [Compound 69] (Ac-CRLPWNLQRIGAPC-NH2; disulfide 1-14), the IC50 is over 50 µM in the assay with His-EGF(A)-Fc, over 50 µM on PCSK9 and 6.64 µM on PCSK9Δhelix.
Take `CC[C@H](C)[C@@H]1NC(=O)[C@H](CCCNC(=N)N)NC(=O)[C@H](CCC(N)=O)NC(=O)[C@H](CC(C)C)NC(=O)[C@H](CC(N)=O)NC(=O)[C@H](Cc2c[nH]c3ccccc23)NC(=O)[C@@H]2CCCN2C(=O)[C@H](CC(C)C)NC(=O)[C@H](CCCNC(=N)N)NC(=O)[C@@H](NC(C)=O)CSSC[C@@H](C(N)=O)NC(=O)[C@@H]2CCCN2C(=O)[C@H](CC(C)C)NC(=O)[C@H](C)NC1=O` [Compound 70] (Ac-CRLPWNLQRIALPC-NH2; disulfide 1-14): the IC50 with His-EGF(A)-Fc was over 50 µM; at PCSK9, over 50 µM; at PCSK9Δhelix, 7.26 µM.
As to `CC(=O)N[C@H]1CSSC[C@@H](C(N)=O)NC(=O)[C@@H]2CCCN2C(=O)[C@H](CC(C)C)NC(=O)CNC(=O)[C@H](C)NC(=O)[C@H](CCCNC(=N)N)NC(=O)[C@H](CCC(N)=O)NC(=O)[C@H](CC(C)C)NC(=O)[C@H](CC(N)=O)NC(=O)[C@H](Cc2c[nH]c3ccccc23)NC(=O)[C@@H]2CCCN2C(=O)[C@H](CC(C)C)NC(=O)[C@H](CCCNC(=N)N)NC1=O` [Compound 71] (Ac-CRLPWNLQRAGLPC-NH2; disulfide 1-14), the figures for the IC50 with His-EGF(A)-Fc, at PCSK9 and at PCSK9Δhelix were over 50 µM, over 50 µM and 49.5 µM, respectively.
`CC[C@H](C)[C@@H]1NC(=O)[C@H](C)NC(=O)[C@H](CCC(N)=O)NC(=O)[C@H](CC(C)C)NC(=O)[C@H](CC(N)=O)NC(=O)[C@H](Cc2c[nH]c3ccccc23)NC(=O)[C@@H]2CCCN2C(=O)[C@H](CC(C)C)NC(=O)[C@H](CCCNC(=N)N)NC(=O)[C@@H](NC(C)=O)CSSC[C@@H](C(N)=O)NC(=O)[C@@H]2CCCN2C(=O)[C@H](CC(C)C)NC(=O)CNC1=O` [Compound 72] (Ac-CRLPWNLQAIGLPC-NH2; disulfide 1-14): the IC50 in the assay on His-EGF(A)-Fc is over 50 µM; on PCSK9, over 50 µM; at PCSK9Δhelix, 39.6 µM.
Consider `CC[C@H](C)[C@@H]1NC(=O)[C@H](CCCNC(=N)N)NC(=O)[C@H](CCC(N)=O)NC(=O)[C@H](C)NC(=O)[C@H](CC(N)=O)NC(=O)[C@H](Cc2c[nH]c3ccccc23)NC(=O)[C@@H]2CCCN2C(=O)[C@H](CC(C)C)NC(=O)[C@H](CCCNC(=N)N)NC(=O)[C@@H](NC(C)=O)CSSC[C@@H](C(N)=O)NC(=O)[C@@H]2CCCN2C(=O)[C@H](CC(C)C)NC(=O)CNC1=O` [Compound 74] (Ac-CRLPWNAQRIGLPC-NH2; disulfide 1-14), for which the IC50 is over 50 µM with His-EGF(A)-Fc, over 50 µM at PCSK9 and 49.5 µM on PCSK9Δhelix.
